Measured values taken from PubChem BioAssay AID248 (DTP/NCI, 2004).
Several values for one entry are separate records, joined by “and”; a condition that tells them apart may be missing. Identical values can stand only once. Inconclusive results and toxic doses are left out. Rule as the data show it: active = T/C of 150% or more; inactive = T/C below 125%.

System: L1210 leukemia ip in BDF1 mice, survival T/C
Assay: NCI In Vivo Anticancer Drug Screen. Data for tumor model L1210 Leukemia (intraperitoneal) in B6D2F1 (BDF1) mice
Conditions: endpoint: mean survival time, higher = longer survival
How it was run: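 Value reflects the ratio of survival in compound-treated mice to survival in vehicle-treated controls, with both groups carrying the same transplanted tumor.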

[1] = dose: 100.0 mg/kg/injection, schedule: Q01DX009 (ip), vehicle: Klucel (hydroxypropylcellulose) (HPC)
[2] = dose: 200.0 mg/kg/injection, schedule: Q01DX009 (ip), vehicle: Klucel (hydroxypropylcellulose) (HPC)
[3] = dose: 400.0 mg/kg/injection, schedule: Q01DX009 (ip), vehicle: Klucel (hydroxypropylcellulose) (HPC)
[4] = dose: 100.0 mg/kg/injection, schedule: Q04DX003 (ip), vehicle: saline with Tween-80
[5] = dose: 200.0 mg/kg/injection, schedule: Q04DX003 (ip), vehicle: saline with Tween-80
[6] = dose: 400.0 mg/kg/injection, schedule: Q04DX003 (ip), vehicle: saline with Tween-80
[7] = dose: 200.0 mg/kg/injection, schedule: Q04DX002 (ip), vehicle: Klucel (hydroxypropylcellulose) (HPC)
[8] = dose: 400.0 mg/kg/injection, schedule: Q04DX002 (ip), vehicle: Klucel (hydroxypropylcellulose) (HPC)
[9] = dose: 100.0 mg/kg/injection, schedule: Q01DX001 (ip), vehicle: saline
[10] = dose: 200.0 mg/kg/injection, schedule: Q01DX001 (ip), vehicle: saline
[11] = dose: 400.0 mg/kg/injection, schedule: Q01DX001 (ip), vehicle: saline
[12] = dose: 100.0 mg/kg/injection, schedule: Q01DX001 (ip), vehicle: carboxymethylcellulose (CMC)
[13] = dose: 200.0 mg/kg/injection, schedule: Q01DX001 (ip), vehicle: carboxymethylcellulose (CMC)
[14] = dose: 400.0 mg/kg/injection, schedule: Q01DX001 (ip), vehicle: carboxymethylcellulose (CMC)

Measured: T/C

CCOc1ccc(/C=C/c2ccc(OCC)cc2)cc1
inactive: [1] 90 % of control | [2] 90 % of control | [3] 93 % of control

CCCCOC(=O)c1ccc(OC(=O)Nc2cc(OC)ccc2OC)cc1
inactive: [4] 95 % of control | [5] 91 % of control | [6] 90 % of control

CS(=O)c1ccc(/C=C2/C=Cc3ccccc32)cc1 (stereo unspecified)
inactive: [1] 91 % of control | [2] 103 % of control | [3] 101 % of control

CC(=O)Nc1ccc(C(=O)O)cc1
inactive: dose: 100.0 mg/kg/injection, schedule: Q04DX002 (ip), vehicle: Klucel (hydroxypropylcellulose) (HPC) 88 % of control | [7] 92 % of control | [8] 111 % of control

CC1(C)c2ccc([nH]2)C(C)(C)c2ccc([nH]2)C(C)(C)c2c[nH]cc2C(C)(C)c2ccc1[nH]2
inactive: [9] 102 % of control | [10] 94 % of control | [11] 97 % of control

Clc1ncnc2c1ncn2C1CCCO1 (stereo unspecified)
inactive: [9] 97 % of control | dose: 178.0 mg/kg/injection, schedule: Q01DX009 (ip), vehicle: saline 113 % of control | [10] 96 % of control | dose: 267.0 mg/kg/injection, schedule: Q01DX009 (ip), vehicle: saline 113 % of control | [11] 112 % of control
active: dose: 400.0 mg/kg/injection, schedule: Q01DX009 (ip), vehicle: saline 154 % of control

Cc1ccc(S(=O)(=O)NCCCCC(N)C(=O)O)cc1 (stereo unspecified)
inactive: [1] 98 % of control | dose: 100.0 mg/kg/injection, schedule: Q04DX003 (ip), vehicle: Klucel (hydroxypropylcellulose) (HPC) 98 % of control | [2] 98 % of control | dose: 200.0 mg/kg/injection, schedule: Q04DX003 (ip), vehicle: Klucel (hydroxypropylcellulose) (HPC) 108 % of control | [3] 100 % of control | dose: 400.0 mg/kg/injection, schedule: Q04DX003 (ip), vehicle: Klucel (hydroxypropylcellulose) (HPC) 98 % of control

O=C1c2ccccc2C(=O)N1N1C(=O)C2C3CCC(O3)C2C1=O (stereo unspecified)
inactive: dose: 100.0 mg/kg/injection, schedule: Q01DX001 (ip), vehicle: saline with Tween-80 97 % of control and 91 % of control | dose: 100.0 mg/kg/injection, schedule: Q04DX002 (ip), vehicle: saline with Tween-80 101 % of control and 106 % of control | [4] 93 % of control and 95 % of control | dose: 200.0 mg/kg/injection, schedule: Q01DX001 (ip), vehicle: saline with Tween-80 94 % of control and 90 % of control | dose: 200.0 mg/kg/injection, schedule: Q04DX002 (ip), vehicle: saline with Tween-80 105 % of control | [5] 95 % of control and 100 % of control | dose: 400.0 mg/kg/injection, schedule: Q01DX001 (ip), vehicle: saline with Tween-80 96 % of control and 97 % of control | dose: 400.0 mg/kg/injection, schedule: Q04DX002 (ip), vehicle: saline with Tween-80 94 % of control and 101 % of control | [6] 95 % of control and 100 % of control

CCSCC1C=CC(n2cnc3c(N)ncnc32)O1 (stereo unspecified)
inactive: dose: 50.0 mg/kg/injection, schedule: Q01DX001 (ip), vehicle: carboxymethylcellulose (CMC) 109 % of control | [12] 109 % of control | [13] 98 % of control | [14] 109 % of control

COc1ccc(NC(=O)Nc2ccc(C3=NCCN3)cc2)cc1NC(=O)Nc1ccc(C2=NCCN2)cc1
inactive: dose: 8.0 mg/kg/injection, schedule: Q01DX Z (ip), vehicle: carboxymethylcellulose (CMC) 107 % of control | dose: 16.0 mg/kg/injection, schedule: Q01DX Z (ip), vehicle: carboxymethylcellulose (CMC) 102 % of control | dose: 31.0 mg/kg/injection, schedule: Q01DX Z (ip), vehicle: carboxymethylcellulose (CMC) 100 % of control | dose: 62.0 mg/kg/injection, schedule: Q01DX Z (ip), vehicle: carboxymethylcellulose (CMC) 104 % of control | dose: 125.0 mg/kg/injection, schedule: Q01DX Z (ip), vehicle: carboxymethylcellulose (CMC) 102 % of control

COc1cc(Cl)ccc1NC(=O)Oc1ccc(OCc2ccccc2)cc1
inactive: [1] 94 % of control | [2] 94 % of control | [3] 97 % of control

CC(=O)N(C)C(C(=O)N1CC(C)CC1C(=O)N(C)C1C(=O)NC(CC(C)C)C(=O)N2CC(C)CC2C(=O)NC(CC(C)C)C(=O)N(C)C(C(C)C)C(=O)N2CCCC2C(=O)N(C)C(CC(C)C)C(=O)NCC(=O)OC1C)C(C)C (stereo unspecified)
inactive: dose: 18.75 mg/kg/injection, schedule: Q01DX009 (ip), vehicle: Klucel (hydroxypropylcellulose) (HPC) 104 % of control | dose: 37.5 mg/kg/injection, schedule: Q01DX009 (ip), vehicle: Klucel (hydroxypropylcellulose) (HPC) 109 % of control | dose: 75.0 mg/kg/injection, schedule: Q01DX009 (ip), vehicle: Klucel (hydroxypropylcellulose) (HPC) 101 % of control

COc1cc(-c2cc(-c3ccccc3)c3ccccc3n2)cc(OC)c1OC
inactive: [1] 97 % of control | [2] 100 % of control | [3] 96 % of control

O=C1CCCCC1CC1(O)C(=O)NC2CCC(Br)CC21 (stereo unspecified)
inactive: [7] 100 % of control | [8] 92 % of control

OCC1OC(CO)(c2ccccc2O)C(O)C1O (stereo unspecified) (tested in a mixture with another compound)
inactive: [9] 95 % of control | [10] 97 % of control | [11] 92 % of control

CC1Nc2ccccc2-c2ccccc2C1=O (stereo unspecified)
inactive: [12] 107 % of control | [13] 102 % of control | [14] 102 % of control

N/C(=N/N=C/c1cc(Cl)ccc1O)N/N=C\c1cc(Cl)ccc1O
inactive: dose: 15.0 mg/kg/injection, schedule: Q01DX Z (ip), vehicle: methylcellulose (MC) 107 % of control | dose: 30.0 mg/kg/injection, schedule: Q01DX Z (ip), vehicle: methylcellulose (MC) 104 % of control | dose: 60.0 mg/kg/injection, schedule: Q01DX Z (ip), vehicle: methylcellulose (MC) 119 % of control | dose: 60.0 mg/kg/injection, schedule: Q01DX Z (oral), vehicle: methylcellulose (MC) 94 % of control | dose: 120.0 mg/kg/injection, schedule: Q01DX Z (ip), vehicle: methylcellulose (MC) 108 % of control | dose: 120.0 mg/kg/injection, schedule: Q01DX Z (oral), vehicle: methylcellulose (MC) 93 % of control | dose: 240.0 mg/kg/injection, schedule: Q01DX Z (oral), vehicle: methylcellulose (MC) 100 % of control

Cc1ncc2n1C=CN(C(=O)c1ccc([N+](=O)[O-])cc1)C2O (stereo unspecified)
inactive: dose: 100.0 mg/kg/injection, schedule: Q01DX009 (ip), vehicle: water 98 % of control | dose: 200.0 mg/kg/injection, schedule: Q01DX009 (ip), vehicle: water 98 % of control | dose: 400.0 mg/kg/injection, schedule: Q01DX009 (ip), vehicle: water 93 % of control

Cc1ccc(C)c2c1CCCC2=O
inactive: dose: 12.5 mg/kg/injection, schedule: Q01DX009 (ip), vehicle: saline with Tween-80 110 % of control | dose: 25.0 mg/kg/injection, schedule: Q01DX009 (ip), vehicle: saline with Tween-80 107 % of control and 114 % of control | dose: 50.0 mg/kg/injection, schedule: Q01DX009 (ip), vehicle: saline with Tween-80 98 % of control and 106 % of control | dose: 100.0 mg/kg/injection, schedule: Q01DX009 (ip), vehicle: saline with Tween-80 88 % of control | dose: 200.0 mg/kg/injection, schedule: Q01DX009 (ip), vehicle: saline with Tween-80 93 % of control | dose: 400.0 mg/kg/injection, schedule: Q01DX009 (ip), vehicle: saline with Tween-80 96 % of control

O=C(O)c1ccc(C(=O)O)c(O)c1
inactive: [9] 105 % of control | [10] 97 % of control | [11] 94 % of control

C=CCC(CC)(C(=O)O)C(=O)O
inactive: dose: 100.0 mg/kg/injection, schedule: Q01DX009 (ip), vehicle: saline 96 % of control | dose: 100.0 mg/kg/injection, schedule: Q04DX003 (ip), vehicle: saline 102 % of control | dose: 200.0 mg/kg/injection, schedule: Q01DX009 (ip), vehicle: saline 93 % of control | dose: 200.0 mg/kg/injection, schedule: Q04DX003 (ip), vehicle: saline 95 % of control | dose: 400.0 mg/kg/injection, schedule: Q04DX003 (ip), vehicle: saline 86 % of control

C=CCN(CC=C)CCNc1nc(C(Cl)(Cl)Cl)nc2ccc(Cl)cc12
inactive: [4] 102 % of control | [5] 87 % of control

CCOC(=O)C(C#N)C(C)(C[N+](=O)[O-])C1CC1 (stereo unspecified)
inactive: dose: 0.78 mg/kg/injection, schedule: Q04DX003 (ip), vehicle: saline with Tween-80 96 % of control | dose: 1.56 mg/kg/injection, schedule: Q04DX003 (ip), vehicle: saline with Tween-80 101 % of control | dose: 3.13 mg/kg/injection, schedule: Q04DX003 (ip), vehicle: saline with Tween-80 97 % of control
